From paper PMC11939361, “diAcCA, a Pro-Drug for Carnosic Acid That Activates the Nrf2 Transcriptional Pathway, Shows Efficacy in the 5xFAD Transgenic Mouse Model of Alzheimer’s Disease” (Antioxidants, 2025)
Entries after “also recorded” stand apart in the source; their conditions may differ.

What was measured:
5xFAD mice = assay: Morris water maze probe test; format: in vivo, mouse; conditions: for Morris water maze probe test, time in the platform quadrant zone: compared to WT control mice; for Morris water maze probe test, percentage of time in the target quadrant / Morris water maze probe test, time to first enter the platform zone: compared to WT controls
Method: (§1) diAcCA or control vehicle was administered three times per week for 3 months to 5xFAD Tg or WT littermate control mice starting at approximately 5 months of age by oral gavage (designated here as “per os” or PO). Three different doses were used (10 mg/kg, 20 mg/kg, or 50 mg/kg). diAcCA was dissolved in olive oil vehicle, a non-polar organic solvent. For vehicle control, we administered olive oil alone. A total of 45 animals were used in this study, with 7–8 animals in each group.
The Morris water maze test is used to evaluate spatial learning and memory skills in rodents. In the experimental setup, mice are placed in a circular tank containing opaque water maintained at a consistent temperature of 21 ± 1 °C. The mice undergo 2 trials each day for a period of 4 days during which they are trained to find a hidden platform placed somewhere within the tank. The platform acts as an escape for the mice from swimming. The starting point of the mice in the tank is randomized; however, the location of the platform remains unchanged for a given mouse. After entering the water, the mice are given a maximum of 90 s to navigate to the platform and climb it. If a mouse is unable to find the platform in this duration, the experimenter offers gentle guidance to help it in reaching the platform. On day 5, after the training phase is over, a “probe trial” is conducted in which the platform is removed from the water maze. The mice are allowed to swim for a period of 60 s to observe if they learned to use spatial cues to navigate to safety (i.e., swim to the area in which the platform had been located and then spend more time in this quadrant of the pool than the other quadrants). After each trial, the mice are given a 10 min rest period in which they are transferred to a new cage with a warm towel. Data are analyzed using Noldus EthoVision software (version XT 17, Leesburg, VA, USA) with parameters measured for “latency to escape” for the acquisition trials and “quadrant time” as well as “distance and velocity of swimming” in the probe test.
To delineate the effect of diAcCA on spatial memory, we performed the Morris water maze probe test, a widely used assessment for evaluating hippocampal-dependent memory. After diAcCA or vehicle treatment of WT and 5xFAD mice for 3 months starting at 5 months of age, the animals were initially trained for […] to ensure learning of the spatial memory task, i.e., swimming to the location of a hidden platform in the opaque water maze that the mice could stand on. Subsequently, their memory for the task was measured using the “probe test”, monitoring how well each mouse recalled the location of the platform once it had been removed from the swimming tank. This was assessed by the amount of time spent in the proper quadrant of the tank that previously housed the platform (the “target” quadrant) vs. other quadrants.

WT 6XC57BL6 mice = assay: Non-GLP toxicology analysis of esophagus and stomach (H&E, inflammation); format: in vivo, mouse; conditions: for overall safety / toxicology: in vivo
Method: Starting at 5 months of age, WT 6XC57BL6 mice were given either the highest dose of diAcCA used in this study (50 mg/kg) or olive oil vehicle three times a week for three months by oral gavage/PO. Following the treatment, the esophagus and stomach were isolated, and 5 μm-thick coronal and sagittal sections were cut from the esophagus. The stomach was opened along the greater curvature, cleaned with PBS, and pinned flat. Two 5 μm-thick sagittal sections were collected, one extending from the cardiac region to the duodenum, and the other from the forestomach to the fundic area. All sections were made using a rotary microtome (HM325-#387821, Fisher Scientific) and mounted on SuperfrostPlus slides (#1255015, Fisher brand). The sections were stained by hematoxylin and eosin stain (H&E) [Abcam H&E kit, ab245880], mounted with permount, dried overnight at room temperature, and then imaged. Acquired images were analyzed in a masked fashion for inflammation by a board-certified pathologist.
Extensive toxicity and safety data are already published on CA [47, 48]. […] Accordingly, in light of our PK findings, we selected a dose of 50 mg/kg to assess safety of the drug after oral administration to WT mice. We performed a non-GLP toxicology analysis of vehicle (olive oil) or drug administered PO three times a week for 3 months starting at 5 months of age. Following this period, sections from the stomach and esophagus were stained with H&E and examined blindly by a board-certified toxicologic pathologist.
Supplementary Figure S2. Pharmacokinetic and safety studies for diAcCA. […]
(D, E) Non-GLP toxicology analysis on WT mice after treatment with vehicle ( olive oil) or the highest concentration of diAcCA (50 mg/ kg) used in these experiments.
Representative esophagus and stomach lining sections (D) stained by hematoxylin & eosin (H&E) from two groups of mice. Scale: 500 μm. Bar graph (E) quantifying inflammation in esophagus (periesophagitis) and stomach (neutrophilic gastritis) by a standard tox inflammatory score ranging from 0 to 4 (0: inflammation within normal limits, 1: minimal […]
baseline inflammation in WT mice (n =3 animals in each group).
(1 picture or pasted object on this page, not shown here)

[1] = Shelf life / stability of the compound over time; format: physicochemical; conditions: storage (CA: even if kept in the dark and cold)
[2] = mouse, in vivo
Method: We tested both CA and diAcCA compounds by oral gavage/PO at 10 mg/kg. Analysis was performed by LC-MS in the Scripps Florida Drug Development Core (Jupiter, FL, USA). The compounds were formulated in olive oil. CA went into the oil with minimal stirring, but diAcCA required longer stirring. Blood was collected in hematocrit tubes and centrifuged. […] Drug is therefore likely absorbed via enterocyte passage and through chylomicron absorbance, complicating the early time points of the PK curves.
Therefore, we decided to pre-weigh the CA into a vial and, in the vivarium, rapidly dissolve the compound in DMSO and then add Tween80/saline. The compound was dosed within five minutes of being dissolved, and the final concentrations were 5% DMSO and 95% of a 5% Tween80 solution in saline. […] Oral clearance calculations assume 100% bioavailability.
We also determined the stability and bioavailability of diAcCA compared to CA. For this purpose, individual mice were administered CA or diAcCA IV or via oral gavage/PO. For CA, the doses were 3 mg/kg for the IV route and 10 mg/kg for oral gavage/PO, and for diAcCA 10 mg/kg by oral gavage/PO.

[3] = tested on: DAM-related genes in 5xFAD mouse brain; assay: nCounter NanoString neuropathology gene expression panel; format: in vivo
Method: as §1
The hippocampus/cortex were isolated from the brain and RNA isolation was performed immediately using the Quick-RNA Miniprep kit (76211-580, VWR, Radnor, PA, USA). RNA was then analyzed by the Salk Institute Single-Cell & Spatial Omics Core for the nCounter Neuropathology panel (NanoString, Bruker Spatial Biology, Inc., Seattle, WA, USA). The list of genes included in the NanoString analysis is provided as Supplementary Information (Table S3). The analysis was performed using the following packages on R studio software version 4.2.3: readr 2.1.5, dplyr 1.1.4, clusterProfiler 4.6.2, org.mm.eg.db 3.16.0, ggplot2 3.5.1, and stringr 1.5.1.
To elucidate the molecular underpinnings of the effect of diAcCA on neuroinflammation, we next analyzed disease-associated microglia (DAM) signatures in WT and 5xFAD mouse brains using nCounter® biomarker analysis (NanoString, Bruker Spatial Biology, Inc., […]). RNA was isolated from the hippocampus/cortex of WT and 5xFAD mice that had received three-month vehicle or diAcCA treatment, and a NanoString neuropathology gene expression panel was performed (Figure 4).

In the case of `CC(=O)Oc1c(C(C)C)cc2c(c1OC(C)=O)[C@@]1(C(=O)O)CCCC(C)(C)[C@@H]1CC2` [diAcCA], the “Morris water maze probe test, time in the platform quadrant zone” value (5xFAD mice; 10 mg/kg and 20 mg/kg) was “spent significantly less time in the platform quadrant zone compared to WT control mice”, the “Morris water maze probe test, percentage of time in the target quadrant” value (5xFAD mice; 10 mg/kg) was “spent significantly less time in the target quadrant” and the “Morris water maze probe test, time to first enter the platform zone” value (5xFAD mice; 10 mg/kg) was “took significantly more time to first enter the platform zone compared to WT controls”. The “Morris water maze probe test, percentage of time in the target quadrant” value (5xFAD mice; 20 mg/kg and 50 mg/kg) was “spent a similar percentage of time in the target and other quadrants as the WT controls”, the “Morris water maze probe test, time to first enter the platform zone” value (5xFAD mice; 20 mg/kg and 50 mg/kg) was “took a similar amount of time compared to WT controls” and the “Morris water maze probe test, time in the platform quadrant zone” value (5xFAD mice; 50 mg/kg) was “spent similar amount of time in the platform quadrant as WT control mice”. The “Morris water maze probe test, performance (time in target quadrant, time to reach platform zone)” value (5xFAD mice; ≥20 mg/kg, or, for total time spent in the target quadrant, 50 mg/kg) was “performed significantly better”, the “baseline inflammation in the esophagus (periesophagitis), H&E” value (WT 6XC57BL6 mice; WT mice, 50 mg/kg PO three times a week for 3 months vs olive oil vehicle, n = 3, 50 mg/kg) was “appeared to improve; also recorded: improved baseline inflammation in the esophagus” and the “overall safety / toxicology” value (WT 6XC57BL6 mice; mouse) was “as safe or safer than CA”. The “overall safety / toxicology” value (WT 6XC57BL6 mice; mouse, listed as diAcCa) was “no toxicological issues”, the “toxicity to the digestive system after oral administration” value (WT 6XC57BL6 mice; mouse) was “no toxicity was noted” and the “shelf life / stability over time” value [1] was “stable in our hands for over two years”. For the same molecule, the “shelf life / stability over time” value ([1]; listed as diAcCa) was “stable shelf life (of over two years)”, the “half-life (t1/2)” value [2] was “over 12 h” and the “Cmax greater than after CA itself” value ([2]; po) was about 30%. The “Cmax of CA in plasma” value ([2]; po, 10 mg/kg) was 5.75, the Tmax ([2]; po, 10 mg/kg) was 1.67 h and the average half-life ([2]; po, 10 mg/kg) was 12.27 h. For the same molecule, the “mean Cmax of CA” value ([2]; po, 10 mg/kg) was 5.75 µM, the t1/2 ([2]; po, 10 mg/kg) was 12.27 h and the “time to peak plasma levels of CA after administration of diAcCA” value ([2]; po, 10 mg/kg) was ~ 15 min. The “expression of DAM genes C3 and Igf1” value ([3]; 5xFAD brain, 20 or 50 mg/kg vs vehicle, n = 3) was “significantly downregulated”, the “DAM signature (heatmap of DAM-related genes)” value ([3]; 5xFAD hippocampus/cortex RNA, three-month treatment, n = 3) was “dose-dependent decrease in DAM signature” and the “GO biological pathway analysis of upregulated and downregulated genes” value ([3]; diAcCA-treated 5xFAD brain vs vehicle-treated) was “upregulation of genes enriched in pathways associated with neuroprotection”.
